Data taken from paper PMC7104723 (Cell Research, 2020).
pIC50: −log10 of the molar value. Values joined by “and” are separate entries in the source; they are usually repeats but may differ in a detail not shown here. Equal values may be shown once.

Legend:
HCoV-OC43 = type: in vivo, mice
MERS-CoV PsV = conditions: 72 h
MERS-CoV S protein = MERS-CoV S protein (Middle East respiratory syndrome-related coronavirus, UniProt K9N5Q8); assay: cell-based; type: cell-based
SARS-CoV PsV = conditions: 72 h
HCoV-OC43 S protein = HCoV-OC43 S protein (Human coronavirus OC43, UniProt P36334); assay: cell-based; type: cell-based
SARS-2-HR1 = SARS-2-HR1 (Severe acute respiratory syndrome coronavirus 2, UniProt P0DTC2); type: binding, SARS-CoV-2
HCoV-OC43 PsV = conditions: 72 h
SARS-CoV S protein = SARS-CoV S protein (Severe acute respiratory syndrome coronavirus, UniProt P59594); assay: cell-based; type: cell-based
SARS-CoV-2 S protein = SARS-CoV-2 S protein (Severe acute respiratory syndrome coronavirus 2, UniProt P0DTC2); assay: cell-based; type: cell-based

Sequence of HCoV-OC43 S protein (P36334 14-1353 limits assumed): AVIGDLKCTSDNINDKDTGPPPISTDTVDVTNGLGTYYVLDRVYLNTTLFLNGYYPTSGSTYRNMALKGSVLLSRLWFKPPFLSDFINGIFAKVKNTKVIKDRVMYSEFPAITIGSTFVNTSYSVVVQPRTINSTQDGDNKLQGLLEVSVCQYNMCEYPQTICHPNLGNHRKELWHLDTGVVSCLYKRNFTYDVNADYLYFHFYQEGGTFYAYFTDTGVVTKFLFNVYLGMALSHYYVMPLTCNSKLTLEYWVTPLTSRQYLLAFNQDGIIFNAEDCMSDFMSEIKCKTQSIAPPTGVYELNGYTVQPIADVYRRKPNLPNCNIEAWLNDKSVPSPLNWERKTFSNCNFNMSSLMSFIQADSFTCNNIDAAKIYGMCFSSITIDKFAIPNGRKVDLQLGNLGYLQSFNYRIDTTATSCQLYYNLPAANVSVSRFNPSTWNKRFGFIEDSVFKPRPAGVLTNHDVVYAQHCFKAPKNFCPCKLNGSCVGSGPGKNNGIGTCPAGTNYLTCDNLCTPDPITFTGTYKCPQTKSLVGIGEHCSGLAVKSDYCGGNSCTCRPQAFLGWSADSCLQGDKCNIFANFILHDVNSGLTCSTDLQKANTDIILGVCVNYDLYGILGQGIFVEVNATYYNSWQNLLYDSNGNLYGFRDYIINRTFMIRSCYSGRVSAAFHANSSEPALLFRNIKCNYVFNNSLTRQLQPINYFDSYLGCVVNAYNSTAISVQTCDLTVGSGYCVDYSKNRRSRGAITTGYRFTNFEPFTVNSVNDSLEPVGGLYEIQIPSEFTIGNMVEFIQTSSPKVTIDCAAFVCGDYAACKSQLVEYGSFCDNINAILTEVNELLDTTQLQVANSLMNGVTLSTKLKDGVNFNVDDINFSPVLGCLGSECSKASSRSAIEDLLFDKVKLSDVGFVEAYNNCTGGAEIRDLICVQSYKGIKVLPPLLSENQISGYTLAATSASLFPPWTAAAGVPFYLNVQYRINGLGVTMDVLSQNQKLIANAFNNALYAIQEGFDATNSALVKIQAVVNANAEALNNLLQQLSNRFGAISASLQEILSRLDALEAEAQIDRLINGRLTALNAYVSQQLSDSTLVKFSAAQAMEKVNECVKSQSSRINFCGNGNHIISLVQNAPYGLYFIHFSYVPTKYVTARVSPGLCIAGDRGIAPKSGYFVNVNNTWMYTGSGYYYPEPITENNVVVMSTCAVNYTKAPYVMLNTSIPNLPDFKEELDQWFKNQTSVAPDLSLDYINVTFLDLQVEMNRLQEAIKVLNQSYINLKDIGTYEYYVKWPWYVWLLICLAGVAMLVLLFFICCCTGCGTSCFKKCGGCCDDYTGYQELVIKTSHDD
Sequence of MERS-CoV S protein (K9N5Q8 18-1353 limits assumed): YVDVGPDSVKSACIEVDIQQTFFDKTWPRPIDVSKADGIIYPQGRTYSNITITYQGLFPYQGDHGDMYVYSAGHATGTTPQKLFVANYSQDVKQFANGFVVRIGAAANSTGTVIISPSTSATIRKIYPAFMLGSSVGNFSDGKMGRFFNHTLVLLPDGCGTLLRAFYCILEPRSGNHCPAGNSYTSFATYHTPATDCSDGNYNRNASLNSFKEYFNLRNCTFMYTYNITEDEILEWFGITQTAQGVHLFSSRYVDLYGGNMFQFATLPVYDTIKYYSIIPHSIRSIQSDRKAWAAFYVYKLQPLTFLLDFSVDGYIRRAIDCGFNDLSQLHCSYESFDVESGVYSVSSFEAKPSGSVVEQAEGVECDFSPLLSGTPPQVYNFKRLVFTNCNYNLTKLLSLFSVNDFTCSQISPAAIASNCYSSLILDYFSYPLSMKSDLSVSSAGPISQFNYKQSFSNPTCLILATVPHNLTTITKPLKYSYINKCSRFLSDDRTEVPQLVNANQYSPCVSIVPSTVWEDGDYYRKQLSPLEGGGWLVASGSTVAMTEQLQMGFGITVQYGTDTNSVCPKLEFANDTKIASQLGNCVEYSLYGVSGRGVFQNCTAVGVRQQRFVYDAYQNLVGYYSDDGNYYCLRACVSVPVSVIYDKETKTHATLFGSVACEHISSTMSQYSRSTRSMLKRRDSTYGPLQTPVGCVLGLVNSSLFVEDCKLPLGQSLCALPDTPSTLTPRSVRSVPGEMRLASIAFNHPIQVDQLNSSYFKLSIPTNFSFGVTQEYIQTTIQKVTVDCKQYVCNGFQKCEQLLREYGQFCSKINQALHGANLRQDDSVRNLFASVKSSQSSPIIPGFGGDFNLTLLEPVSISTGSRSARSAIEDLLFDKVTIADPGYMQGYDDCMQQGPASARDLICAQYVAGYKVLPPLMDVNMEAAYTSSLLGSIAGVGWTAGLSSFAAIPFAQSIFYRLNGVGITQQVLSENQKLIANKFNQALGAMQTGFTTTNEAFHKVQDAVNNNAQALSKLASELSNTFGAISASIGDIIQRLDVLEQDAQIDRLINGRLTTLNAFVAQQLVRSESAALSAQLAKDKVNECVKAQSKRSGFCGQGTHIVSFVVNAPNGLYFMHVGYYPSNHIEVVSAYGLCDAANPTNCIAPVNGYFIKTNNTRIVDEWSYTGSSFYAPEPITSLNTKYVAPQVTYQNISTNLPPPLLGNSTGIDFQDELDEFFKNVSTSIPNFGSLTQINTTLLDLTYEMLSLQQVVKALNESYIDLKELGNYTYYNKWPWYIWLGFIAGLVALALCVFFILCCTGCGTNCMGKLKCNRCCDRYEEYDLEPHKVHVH

CC[C@H](C)[C@H](NC(=O)[C@H](C)NC(=O)[C@H](CCC(=O)O)NC(=O)[C@H](CCC(=O)O)NC(=O)[C@H](CC(C)C)NC(=O)[C@H](CCCCN)NC(=O)[C@H](CCCCN)NC(=O)[C@H](CCSC)NC(=O)[C@H](CCC(=O)O)NC(=O)[C@H](Cc1ccc(O)cc1)NC(=O)[C@H](CCC(=O)O)NC(=O)[C@H](CC(C)C)NC(=O)[C@H](CC(=O)O)NC(=O)[C@H](CC(C)C)NC(=O)[C@H](Cc1ccccc1)NC(=O)[C@@H](NC(=O)[C@@H](NC(=O)[C@H](CC(N)=O)NC(=O)[C@@H](NC(=O)[C@H](CCC(N)=O)NC(=O)[C@H](CC(=O)O)NC(=O)[C@H](CC(C)C)NC(=O)[C@@H](N)CO)[C@@H](C)CC)C(C)C)[C@@H](C)O)C(=O)N[C@@H](CCCCN)C(=O)N[C@@H](CCCCN)C(=O)N[C@@H](CC(C)C)C(=O)N[C@@H](CCC(=O)O)C(=O)N[C@@H](CCC(=O)O)C(=O)N[C@@H](CO)C(=O)N[C@@H](Cc1ccc(O)cc1)C(=O)N[C@H](C(=O)N[C@@H](CC(=O)O)C(=O)N[C@@H](CC(C)C)C(=O)N[C@@H](CCCCN)C(=O)N[C@@H](CCC(=O)O)C(=O)N[C@@H](CC(C)C)C(=O)NCC(=O)N[C@@H](CO)C(=O)NCC(=O)N[C@@H](CO)C(=O)NCC(=O)NCCOCCOCCOCCOCCC(=O)N[C@@H](CSCC(=O)O[C@H]1CC[C@@]2(C)C(=CC[C@H]3[C@@H]4CC[C@H]([C@H](C)CCCC(C)C)[C@@]4(C)CC[C@@H]32)C1)C(N)=O)[C@@H](C)CC [EK1C4]
Fold more potent than EK1, live HCoV-OC43 infection (live HCoV-OC43): 62 fold | pIC50 (live HCoV-OC43; 1 h): 7.61 | Viral titer in brain, Post-0.5 group (HCoV-OC43; 0.5 mg/kg intranasal 0.5 h after challenge, day 5, 5 mice, limit of detection lg2.0 TCID50/g): not detected | Brain histopathology, Post-0.5 group (HCoV-OC43; 0.5 mg/kg intranasal 0.5 h after challenge, day 5, one mouse): no apparent histopathological changes | Brain histopathology, Pre-0.5 group (HCoV-OC43; 0.5 mg/kg intranasal 0.5 h before challenge, day 5, one mouse): no apparent histopathological changes | Viral titer in brain, Pre-0.5 group (HCoV-OC43; 0.5 mg/kg intranasal 0.5 h before challenge, day 5 after infection, 5 mice, limit of detection lg2.0 TCID50/g): not detected | Mice with high viral titer detected in brain, Post-2 group (HCoV-OC43; 0.5 mg/kg intranasal 2 h after challenge, day 5, 5 mice, limit of detection lg2.0 TCID50/g): 4 out of 5 mice | Viral titer in brain, Pre-2 group (HCoV-OC43; 0.5 mg/kg intranasal 2 h before challenge, day 5, 5 mice, limit of detection lg2.0 TCID50/g): not detected | Brain histopathology, Pre-2 group (HCoV-OC43; 0.5 mg/kg intranasal 2 h before challenge, day 5, one mouse): no apparent histopathological changes | Viral titer in brain, Pre-4 group (HCoV-OC43; 0.5 mg/kg intranasal 4 h before challenge, day 5, 5 mice, limit of detection lg2.0 TCID50/g): not detected | Brain histopathology, Pre-4 group (HCoV-OC43; 0.5 mg/kg intranasal 4 h before challenge, day 5, one mouse): no apparent histopathological changes | Viral titer in brain, Pre-12 group (HCoV-OC43; 0.5 mg/kg intranasal 12 h before challenge, day 5, 5 mice, limit of detection lg2.0 TCID50/g): only moderate level of viral titer was detected in brain tissue in one of the 5 mice | Brain histopathology, Pre-12 group (HCoV-OC43; 0.5 mg/kg intranasal 12 h before challenge, day 5, one mouse): no apparent histopathological changes | Mice with high viral titer detected in brain, Pre-24 group (HCoV-OC43; 0.5 mg/kg intranasal 24 h before challenge, day 5, 5 mice, limit of detection lg2.0 TCID50/g): all 5 mice | Survival rate, Post-0.5 group (HCoV-OC43; newborn mice, intranasal 0.5 mg/kg 0.5 h after HCoV-OC43 infection): 100% | Survival rate, Post-2 group (HCoV-OC43; newborn mice, intranasal 0.5 mg/kg 2 h after HCoV-OC43 infection): 16.7% | Final survival rate, Pre-0.5 group (HCoV-OC43; newborn mice, single intranasal dose 0.5 mg/kg 0.5 h before HCoV-OC43 challenge (100 TCID50), 14 days): 100% | Final survival rate, Pre-2 group (HCoV-OC43; newborn mice, single intranasal dose 0.5 mg/kg 2 h before HCoV-OC43 challenge (100 TCID50), 14 days): 100% | Final survival rate, Pre-4 group (HCoV-OC43; newborn mice, single intranasal dose 0.5 mg/kg 4 h before HCoV-OC43 challenge (100 TCID50), 14 days): 100% | Final survival rate, Pre-12 group (HCoV-OC43; newborn mice, single intranasal dose 0.5 mg/kg 12 h before HCoV-OC43 challenge (100 TCID50), 14 days): 83% | Final survival rate, Pre-24 group (HCoV-OC43; newborn mice, single intranasal dose 0.5 mg/kg 24 h before HCoV-OC43 challenge (100 TCID50), 14 days): 0% | Fold more active than EK1, HCoV-NL63 PsV infection (HCoV-NL63 PsV): ~99 fold | pIC50 (HCoV-NL63 PsV; 72 h): 7.12 | pIC50 (MERS-CoV PsV): 7.95 | Fold more active than EK1, HCoV-229E PsV infection (HCoV-229E PsV): about 319 fold | pIC50 (HCoV-229E PsV; 72 h): 7.91 | Fold more potent than EK1, live MERS-CoV infection (live MERS-CoV): 190 fold | pIC50 (live MERS-CoV; 72 h): 8.38 | Fold more potent than EK1, MERS-S-mediated cell–cell fusion (MERS-CoV S protein): 95 fold | pIC50 (SARS-CoV PsV): 7.93 | Fold more active than EK1, live SARS-CoV-2 infection (live SARS-CoV-2): 67 fold | pIC50 (live SARS-CoV-2; live, 72 h): 7.44 | Fold more potent than EK1, Rs3367 PsV infection (Rs3367 PsV): 89 fold | pIC50 (Rs3367 PsV; 72 h): 7.17 | Fold more potent than EK1, OC43-S-mediated cell–cell fusion (HCoV-OC43 S protein): 101 fold | Stability and Tm of complex with SARS-2-HR1 compared with EK1 complex (SARS-2-HR1): higher stability and increased Tm values | Fold more potent than EK1, SARS-CoV-2 PsV infection (SARS-CoV-2 PsV): ~150 fold and 149 fold | pIC50 (SARS-CoV-2 PsV; PsV, 72 h): 7.80 | pIC50 (HCoV-OC43 PsV): 7.42 | Fold more potent than EK1, live HCoV-229E infection (live HCoV-229E): 42 fold | pIC50 (live HCoV-229E; 1 h): 6.99 | Fold more potent than EK1, live HCoV-NL63 infection (live HCoV-NL63): 19 fold | pIC50 (live HCoV-NL63; 1 h): 6.73 | Fold more active than EK1, SARS-CoV S-mediated cell–cell fusion (SARS-CoV S protein): about 94 fold | Fold more potent than EK1C1, SARS-CoV-2 S-mediated cell–cell fusion (SARS-CoV-2 S protein): 43 fold | Fold more potent than EK1, WIV1 PsV infection (WIV1 PsV): 175 fold | pIC50 (WIV1 PsV; 72 h): 7.51
